“And” between values parts separate entries of the source, which are not always exact repeats. Equal values may be shown once. Toxic doses and inconclusive results are not listed. Rule as the data show it: active = T/C of 150% or more; inactive = T/C below 125%.
System: L1210 leukemia ip in BDF1 mice, survival T/C
Assay: NCI In Vivo Anticancer Drug Screen. Data for tumor model L1210 Leukemia (intraperitoneal) in B6D2F1 (BDF1) mice
Conditions: endpoint: mean survival time, higher = longer survival
Outline: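 Survival endpoint. Drug-treated group vs vehicle group, expressed as T divided by C. Tumor passaged by transplantation.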

[1] = dose: 50.0 mg/kg/injection, schedule: Q01DX009 (ip), vehicle: saline
[2] = dose: 100.0 mg/kg/injection, schedule: Q01DX009 (ip), vehicle: saline
[3] = dose: 200.0 mg/kg/injection, schedule: Q01DX009 (ip), vehicle: saline
[4] = dose: 100.0 mg/kg/injection, schedule: Q04DX003 (ip), vehicle: Klucel (hydroxypropylcellulose) (HPC)
[5] = dose: 200.0 mg/kg/injection, schedule: Q04DX003 (ip), vehicle: Klucel (hydroxypropylcellulose) (HPC)
[6] = dose: 100.0 mg/kg/injection, schedule: Q01DX009 (ip), vehicle: saline with Tween-80
[7] = dose: 200.0 mg/kg/injection, schedule: Q01DX009 (ip), vehicle: saline with Tween-80
[8] = dose: 400.0 mg/kg/injection, schedule: Q01DX009 (ip), vehicle: saline with Tween-80
[9] = dose: 100.0 mg/kg/injection, schedule: Q01DX001 (ip), vehicle: saline
[10] = dose: 200.0 mg/kg/injection, schedule: Q01DX001 (ip), vehicle: saline
[11] = dose: 400.0 mg/kg/injection, schedule: Q01DX001 (ip), vehicle: saline
[12] = dose: 100.0 mg/kg/injection, schedule: Q04DX003 (ip), vehicle: saline
[13] = dose: 100.0 mg/kg/injection, schedule: Q01DX001 (ip), vehicle: Klucel (hydroxypropylcellulose) (HPC)
[14] = dose: 100.0 mg/kg/injection, schedule: Q01DX009 (ip), vehicle: Klucel (hydroxypropylcellulose) (HPC)
[15] = dose: 200.0 mg/kg/injection, schedule: Q01DX009 (ip), vehicle: Klucel (hydroxypropylcellulose) (HPC)
[16] = dose: 400.0 mg/kg/injection, schedule: Q01DX009 (ip), vehicle: Klucel (hydroxypropylcellulose) (HPC)
[17] = dose: 400.0 mg/kg/injection, schedule: Q04DX003 (ip), vehicle: Klucel (hydroxypropylcellulose) (HPC)
[18] = dose: 25.0 mg/kg/injection, schedule: Q01DX009 (ip), vehicle: Klucel (hydroxypropylcellulose) (HPC)
[19] = dose: 50.0 mg/kg/injection, schedule: Q01DX009 (ip), vehicle: Klucel (hydroxypropylcellulose) (HPC)
[20] = dose: 100.0 mg/kg/injection, schedule: Q01DX001 (ip), vehicle: saline with Tween-80
[21] = dose: 200.0 mg/kg/injection, schedule: Q01DX001 (ip), vehicle: saline with Tween-80
[22] = dose: 200.0 mg/kg/injection, schedule: Q04DX003 (ip), vehicle: saline
[23] = dose: 400.0 mg/kg/injection, schedule: Q04DX003 (ip), vehicle: saline

Measured: T/C

CCCCCCCCCCCCC(CC(=O)O)C(=O)N(C)CC(O)C(O)C(O)C(O)CO (stereo not given)
inactive: [1] 106 % of control | [2] 100 % of control | [3] 110 % of control

COc1cc(CNC(=O)/C(C)=C/Cl)ccc1O
inactive: dose: 12.5 mg/kg/injection, schedule: Q04DX003 (ip), vehicle: saline with Tween-80 96 % of control | dose: 25.0 mg/kg/injection, schedule: Q04DX003 (ip), vehicle: saline with Tween-80 96 % of control | dose: 50.0 mg/kg/injection, schedule: Q04DX003 (ip), vehicle: saline with Tween-80 103 % of control

[N-]=[N+]=C1C(c2ccccc2)=NC(c2nccc3ccccc23)=C1[N+](=O)[O-]
inactive: dose: 5.0 mg/kg/injection, schedule: Q01DX001 (ip), vehicle: saline 113 % of control | dose: 10.0 mg/kg/injection, schedule: Q01DX001 (ip), vehicle: saline 102 % of control | dose: 20.0 mg/kg/injection, schedule: Q01DX001 (ip), vehicle: saline 110 % of control

COc1ccc2nc3cc(Cl)ccc3c(NCCC[N+](C)(C)CCCCCCCCCC[N+](C)(C)CCCNc3c4ccc(Cl)cc4nc4ccc(OC)cc34)c2c1
inactive: dose: 0.78 mg/kg/injection, schedule: Q01DX009 (ip), vehicle: saline with Tween-80 102 % of control | dose: 1.56 mg/kg/injection, schedule: Q01DX009 (ip), vehicle: saline with Tween-80 94 % of control and 100 % of control | dose: 3.13 mg/kg/injection, schedule: Q01DX009 (ip), vehicle: saline with Tween-80 100 % of control and 101 % of control | dose: 6.25 mg/kg/injection, schedule: Q01DX009 (ip), vehicle: saline with Tween-80 106 % of control

C/C(CCC(=O)O)=N\NC(=O)COc1ccc(Cl)cc1Cl
inactive: [4] 94 % of control | [5] 98 % of control

NC(=O)C(=O)OCc1ccccc1
inactive: dose: 100.0 mg/kg/injection, schedule: Q01DX001 (ip), vehicle: steriod suspending solution 105 % of control | dose: 200.0 mg/kg/injection, schedule: Q01DX001 (ip), vehicle: steriod suspending solution 97 % of control | dose: 400.0 mg/kg/injection, schedule: Q01DX001 (ip), vehicle: steriod suspending solution 94 % of control

O=C(NC1N=C2OC(COC(=O)c3ccccc3)C(OC(=O)c3ccccc3)C2O1)c1ccccc1 (stereo not given)
inactive: [6] 108 % of control | [7] 93 % of control | [8] 98 % of control

Clc1ccccc1/C=N/N1CCN(/N=C/c2ccccc2Cl)CC1
inactive: [9] 97 % of control | [10] 95 % of control | [11] 101 % of control

Cc1cccc(C)c1NC(=S)N(C)C
inactive: dose: 25.0 mg/kg/injection, schedule: Q01DX009 (ip), vehicle: saline 101 % of control | [1] 103 % of control | [12] 95 % of control

O=C1NCCc2c1sc1ccccc21
inactive: dose: 100.0 mg/kg/injection, schedule: Q01DX001 (ip), vehicle: carboxymethylcellulose (CMC) 95 % of control | dose: 400.0 mg/kg/injection, schedule: Q01DX001 (ip), vehicle: carboxymethylcellulose (CMC) 90 % of control

Cc1cncc(CC(O)(C(F)(F)F)C(F)(F)F)n1
inactive: [9] 102 % of control | [6] 97 % of control | [10] 96 % of control | [7] 103 % of control | [11] 104 % of control | [8] 101 % of control

CC(=O)Nc1c(C(N)=O)ncn1C1OC(COC(C)=O)C(OC(C)=O)C1OC(C)=O (stereo not given)
inactive: dose: 100.0 mg/kg/injection, schedule: Q01DX005 (ip), vehicle: saline 96 % of control | dose: 200.0 mg/kg/injection, schedule: Q01DX005 (ip), vehicle: saline 100 % of control

COc1cc(CCCC(=O)O)c(OC)c(C)c1C
inactive: [13] 93 % of control | [14] 97 % of control | dose: 200.0 mg/kg/injection, schedule: Q01DX001 (ip), vehicle: Klucel (hydroxypropylcellulose) (HPC) 98 % of control | [15] 103 % of control | dose: 400.0 mg/kg/injection, schedule: Q01DX001 (ip), vehicle: Klucel (hydroxypropylcellulose) (HPC) 95 % of control | [16] 101 % of control

CC(Cc1ccccc1)NC1=NCCO1 (stereo not given)
inactive: [6] 91 % of control | [7] 91 % of control | [8] 89 % of control

Fc1cc(F)c(F)c(Oc2c(F)c(F)c(F)c(F)c2F)c1F
inactive: [4] 100 % of control | [5] 95 % of control | [17] 93 % of control

NC(=O)NC(=O)c1ccccc1
inactive: [2] 96 % of control | [3] 101 % of control | dose: 400.0 mg/kg/injection, schedule: Q01DX009 (ip), vehicle: saline 106 % of control

CC[N+](C)(CC)c1ccc(/C=N\N(C)C)cc1
inactive: dose: 6.25 mg/kg/injection, schedule: Q01DX009 (ip), vehicle: Klucel (hydroxypropylcellulose) (HPC) 96 % of control | dose: 12.5 mg/kg/injection, schedule: Q01DX009 (ip), vehicle: Klucel (hydroxypropylcellulose) (HPC) 108 % of control | [18] 86 % of control

O=C(NC(=S)Nc1ccccc1)c1ccc([N+](=O)[O-])cc1
inactive: dose: 75.0 mg/kg/injection, schedule: Q01DX001 (ip), vehicle: carboxymethylcellulose (CMC) 98 % of control | dose: 150.0 mg/kg/injection, schedule: Q01DX001 (ip), vehicle: carboxymethylcellulose (CMC) 90 % of control | dose: 300.0 mg/kg/injection, schedule: Q01DX001 (ip), vehicle: carboxymethylcellulose (CMC) 101 % of control

Cc1cc(=O)[nH][nH]c1=O
inactive: [19] 97 % of control | dose: 50.0 mg/kg/injection, schedule: Q04DX003 (ip), vehicle: Klucel (hydroxypropylcellulose) (HPC) 106 % of control | [20] 95 % of control | [14] 105 % of control | [4] 103 % of control | [12] 94 % of control | [21] 92 % of control | [15] 101 % of control | [5] 101 % of control | [22] 97 % of control | dose: 400.0 mg/kg/injection, schedule: Q01DX001 (ip), vehicle: saline with Tween-80 100 % of control | [23] 97 % of control

CCc1cnc(N)nc1N
inactive: [18] 107 % of control | [19] 101 % of control | [13] 107 % of control | [14] 104 % of control

O=C(NS(=O)(=O)c1ccc(Cl)c(Cl)c1)NS(=O)(=O)c1ccc(Cl)c(Cl)c1
inactive: [20] 100 % of control | [21] 99 % of control

C=CC(C)(O)CCC1C(=C)CCC2C(C)(C)CCCC12C (stereo not given)
inactive: [14] 100 % of control | [15] 100 % of control | [16] 95 % of control

Cn1cnc([N+](=O)[O-])c1Cl
inactive: [1] 102 % of control | [2] 103 % of control | [12] 94 % of control | [3] 92 % of control | [22] 102 % of control

Cc1ccc(CS)cc1
inactive: [14] 101 % of control | [4] 97 % of control | [15] 93 % of control | [5] 97 % of control | [17] 92 % of control

CC1C(C)(C)P(=O)(n2nnc3ccccc32)C1(C)C (stereo not given)
inactive: [12] 105 % of control | [22] 97 % of control | [23] 94 % of control

CC(O)CN1CCCCC1 (stereo not given)
inactive: dose: 100.0 mg/kg/injection, schedule: Q01DX001 (ip), vehicle: other 98 % of control | dose: 100.0 mg/kg/injection, schedule: Q04DX003 (ip), vehicle: saline with Tween-80 96 % of control | dose: 200.0 mg/kg/injection, schedule: Q01DX001 (ip), vehicle: other 98 % of control | dose: 200.0 mg/kg/injection, schedule: Q04DX003 (ip), vehicle: saline with Tween-80 96 % of control

CC1=C/C=C/C(C)C(O)C(C)C(O)C(C)C(O)C(C)C(O)C(C)CC=C(C)C(=O)c2c(O)c(C)cc3c2C(=O)C(C)=C(NC1=O)C3=O (stereo not given)
inactive: [4] 103 % of control | [5] 100 % of control | [17] 101 % of control

Nc1nc(N)nc(-c2ccccc2NN=Nc2ccccc2[N+](=O)[O-])n1
inactive: [14] 103 % of control | [15] 97 % of control | [16] 100 % of control

CSc1cc(C)n2nnnc2n1
inactive: dose: 12.5 mg/kg/injection, schedule: Q01DX001 (ip), vehicle: saline 100 % of control | dose: 25.0 mg/kg/injection, schedule: Q01DX001 (ip), vehicle: saline 96 % of control | dose: 50.0 mg/kg/injection, schedule: Q01DX001 (ip), vehicle: saline 100 % of control

Reference: PubChem BioAssay AID248 (DTP/NCI, 2004)
